From patent publication US12723063B2, “GIPR-agonist compounds” (Eli Lilly and Company, priority 2019, dated 2026)
pKi: −log10 of the molar value. *1 amine or outer side, *2 acyl side, *3 side chain or, on linkers, in order; H or OH if unused. Where a SMILES comes first, the peptide text is derived from it. Side-chain parts run from the residue outwards. [ ]: non-standard residue; d: D form. The star is where a group is joined. C20 diacid = O=C(O)CCCCCCCCCCCCCCCCCCC(=O)*; αMePhe(2-F) = C[C@](N)(Cc1ccccc1F)C(=O)O; γGlu = O=C(O)[C@H](CCC(=O)[*:2])N[*:1]; 4Pal = N[C@@H](Cc1ccncc1)C(=O)O; αMeL = CC(C)C[C@](C)(N)C(=O)O; AEEA = NCCOCCOCC(=O)O; Aib = CC(C)(N)C(=O)O

Experiments:
human GIPR = biological target: T1, human GIPR (Homo sapiens, UniProt P48546); experiment: [125I]-GIP binding, SPA with WGA beads, 0.1% bacitracin; settings: geometric mean, read-out: hGIPR Ki
T1 construct: expressed in transfected cells; crude membranes
T1 sequence (P48546 22-466): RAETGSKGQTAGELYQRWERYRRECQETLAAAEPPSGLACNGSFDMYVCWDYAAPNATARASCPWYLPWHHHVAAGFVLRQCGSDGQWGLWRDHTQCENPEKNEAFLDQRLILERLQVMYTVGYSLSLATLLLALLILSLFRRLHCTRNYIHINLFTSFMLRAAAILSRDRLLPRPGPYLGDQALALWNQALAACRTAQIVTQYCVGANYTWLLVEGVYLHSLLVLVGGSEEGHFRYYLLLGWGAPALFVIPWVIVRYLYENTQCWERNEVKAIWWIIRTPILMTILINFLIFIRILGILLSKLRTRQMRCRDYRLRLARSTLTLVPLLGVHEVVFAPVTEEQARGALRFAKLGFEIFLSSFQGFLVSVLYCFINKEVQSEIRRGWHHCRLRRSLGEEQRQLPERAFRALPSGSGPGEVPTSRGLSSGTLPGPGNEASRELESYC
Outline: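 Ki values are geometric means (SEM, n independent days), derived from four-parameter nonlinear regression of IC50. Membranes came from hGIPR-expressing CHO cells.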

human GcgR = biological target: T2, human GcgR (Homo sapiens, UniProt P47871); experiment: [125I]-Glucagon binding, SPA with WGA beads, 0.1% bacitracin; settings: geometric mean, read-out: hGcgR Ki
T2 construct: expressed in transfected cells; crude membranes
T2 sequence (P47871 26-477): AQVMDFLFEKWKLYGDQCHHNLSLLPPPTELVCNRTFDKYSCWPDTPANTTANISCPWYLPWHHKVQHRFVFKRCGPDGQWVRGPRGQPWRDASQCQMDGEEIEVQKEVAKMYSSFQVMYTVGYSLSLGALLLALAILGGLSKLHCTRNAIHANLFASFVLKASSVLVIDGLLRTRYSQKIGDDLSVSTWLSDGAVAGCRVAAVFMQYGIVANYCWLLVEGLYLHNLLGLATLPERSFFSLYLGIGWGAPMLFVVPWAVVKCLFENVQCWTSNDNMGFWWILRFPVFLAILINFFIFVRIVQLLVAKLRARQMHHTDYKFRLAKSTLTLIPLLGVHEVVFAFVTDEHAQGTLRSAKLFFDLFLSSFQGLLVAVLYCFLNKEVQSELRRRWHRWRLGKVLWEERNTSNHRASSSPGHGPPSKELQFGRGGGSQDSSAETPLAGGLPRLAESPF
Outline: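 SPA competition binding with WGA beads on crude membranes from HEK293 cells stably expressing hGcgR. Buffer: 25 mM HEPES pH 7.4, 2.5 mM CaCl2, 1 mM MgCl2, 0.1% bacitracin, 0.003% Tween-20; 10-point 3-fold dilutions, NSB with 1 μM Gcg.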

human GLP-1R = biological target: T3, human GLP-1R (Homo sapiens, UniProt P43220); experiment: [125I]-GLP-1 binding, SPA with WGA beads, 0.1% bacitracin; settings: geometric mean, read-out: hGLP1R Ki
T3 construct: expressed in transfected cells; crude membranes
T3 sequence (P43220 24-463): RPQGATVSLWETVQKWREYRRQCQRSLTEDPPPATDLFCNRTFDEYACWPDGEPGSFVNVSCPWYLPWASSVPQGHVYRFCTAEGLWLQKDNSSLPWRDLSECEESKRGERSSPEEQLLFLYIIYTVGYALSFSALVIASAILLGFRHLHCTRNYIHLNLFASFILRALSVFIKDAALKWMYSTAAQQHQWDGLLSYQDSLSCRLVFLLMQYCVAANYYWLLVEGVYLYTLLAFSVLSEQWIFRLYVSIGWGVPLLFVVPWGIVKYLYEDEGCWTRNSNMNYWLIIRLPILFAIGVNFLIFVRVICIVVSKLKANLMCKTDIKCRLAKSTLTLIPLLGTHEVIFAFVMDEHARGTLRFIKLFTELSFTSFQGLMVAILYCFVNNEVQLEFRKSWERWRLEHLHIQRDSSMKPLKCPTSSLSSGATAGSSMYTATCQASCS
Outline: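 Binding buffer was 25 mM HEPES pH 7.4 with 2.5 mM CaCl2, 1 mM MgCl2, 0.1% (w/v) bacitracin, 0.003% Tween-20 and EDTA-free protease inhibitors. Four-parameter regression gave IC50, converted to Ki (geometric mean, SEM, n independent days).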

| SMILES | pKi (human GIPR) | pKi (human GcgR) | pKi (human GLP-1R) |
| --- | --- | --- | --- |
| CC[C@H](C)[C@H](NC(=O)[C@H](CO)NC(=O)[C@H](Cc1ccc(O)cc1)NC(=O)[C@H](CC(=O)O)NC(=O)[C@H](CO)NC(=O)[C@@H](NC(=O)[C@](C)(Cc1ccccc1F)NC(=O)[C@@H](NC(=O)CNC(=O)[C@H](CCC(=O)O)NC(=O)C(C)(C)NC(=O)[C@@H](N)Cc1ccc(O)cc1)[C@@H](C)O)[C@@H](C)CC)C(=O)N[C@@](C)(CC(C)C)C(=O)N[C@@H](CC(C)C)C(=O)N[C@@H](CC(=O)O)C(=O)N[C@@H](CCCCN)C(=O)N[C@@H](CCCCNC(=O)COCCOCCNC(=O)COCCOCCNC(=O)CC[C@H](NC(=O)CCCCCCCCCCCCCCCCCCC(=O)O)C(=O)O)C(=O)N[C@@H](Cc1c[nH]cn1)C(=O)N[C@@H](CCC(N)=O)C(=O)NC(C)(C)C(=O)N[C@@H](CC(=O)O)C(=O)N[C@@H](Cc1ccccc1)C(=O)N[C@H](C(=O)N[C@@H](CCC(=O)O)C(=O)N[C@@H](Cc1ccncc1)C(=O)N[C@@H](CC(C)C)C(=O)N[C@@H](CC(C)C)C(=O)N[C@@H](C)C(=O)NCC(=O)NCC(=O)N1CCC[C@H]1C(=O)N[C@@H](CO)C(=O)N[C@@H](CO)C(=O)NCC(=O)N[C@@H](C)C(=O)N1CCC[C@H]1C(=O)N1CCC[C@H]1C(=O)N1CCC[C@H]1C(=O)N[C@@H](CO)C(N)=O)C(C)C [Example 51] (H-Y[Aib]EGT[αMePhe(2-F)]ISDYSI[αMeL]LDKK([AEEA-AEEA-γGlu-C20 diacid])HQ[Aib]DFVE[4Pal]LLAGGPSSGAPPPS-NH2) | 10.41 | 7.57 | 7.27 |
| CC[C@H](C)[C@H](NC(=O)[C@H](Cc1ccccc1)NC(=O)[C@@H](NC(=O)CNC(=O)[C@H](CCC(=O)O)NC(=O)C(C)(C)NC(=O)[C@@H](N)Cc1ccc(O)cc1)[C@@H](C)O)C(=O)N[C@@H](CO)C(=O)N[C@@H](CC(=O)O)C(=O)N[C@@H](Cc1ccc(O)cc1)C(=O)N[C@@H](CO)C(=O)N[C@H](C(=O)N[C@@](C)(CC(C)C)C(=O)N[C@@H](CC(C)C)C(=O)N[C@@H](CC(=O)O)C(=O)N[C@@H](CCCCN)C(=O)N[C@@H](CCCCNC(=O)COCCOCCNC(=O)COCCOCCNC(=O)CC[C@H](NC(=O)CCCCCCCCCCCCCCCCCCC(=O)O)C(=O)O)C(=O)N[C@@H](Cc1c[nH]cn1)C(=O)N[C@@H](CCC(N)=O)C(=O)NC(C)(C)C(=O)N[C@@H](CCC(=O)O)C(=O)N[C@@H](Cc1ccccc1)C(=O)N[C@H](C(=O)N[C@@H](CCC(=O)O)C(=O)N[C@@H](Cc1ccncc1)C(=O)N[C@@H](CC(C)C)C(=O)N[C@@H](CC(C)C)C(=O)N[C@@H](C)C(=O)N[C@@H](CCC(N)=O)C(=O)NCC(=O)N1CCC[C@H]1C(=O)N[C@@H](CO)C(=O)N[C@@H](CO)C(=O)NCC(=O)N[C@@H](C)C(=O)N1CCC[C@H]1C(=O)N1CCC[C@H]1C(=O)N1CCC[C@H]1C(=O)N[C@@H](CO)C(N)=O)C(C)C)[C@@H](C)CC [Example 57] (H-Y[Aib]EGTFISDYSI[αMeL]LDKK([AEEA-AEEA-γGlu-C20 diacid])HQ[Aib]EFVE[4Pal]LLAQGPSSGAPPPS-NH2) | 10.81 | 6.37 | 6.55 |
| CC[C@H](C)[C@H](NC(=O)[C@H](Cc1ccccc1)NC(=O)[C@@H](NC(=O)CNC(=O)[C@H](CCC(=O)O)NC(=O)C(C)(C)NC(=O)[C@@H](N)Cc1ccc(O)cc1)[C@@H](C)O)C(=O)N[C@@H](CO)C(=O)N[C@@H](CC(=O)O)C(=O)N[C@@H](Cc1ccc(O)cc1)C(=O)N[C@@H](CO)C(=O)N[C@H](C(=O)N[C@@](C)(CC(C)C)C(=O)N[C@@H](CC(C)C)C(=O)N[C@@H](CC(=O)O)C(=O)N[C@@H](CCCCN)C(=O)N[C@@H](CCCCNC(=O)COCCOCCNC(=O)COCCOCCNC(=O)CC[C@H](NC(=O)CCCCCCCCCCCCCCCCCCC(=O)O)C(=O)O)C(=O)N[C@@H](Cc1c[nH]cn1)C(=O)N[C@@H](CCC(N)=O)C(=O)NC(C)(C)C(=O)N[C@@H](CC(=O)O)C(=O)N[C@@H](Cc1ccccc1)C(=O)N[C@H](C(=O)N[C@@H](CCC(=O)O)C(=O)N[C@@H](Cc1ccncc1)C(=O)N[C@@H](CC(C)C)C(=O)N[C@@H](CC(C)C)C(=O)N[C@@H](C)C(=O)N[C@H](C(=O)NCC(=O)N1CCC[C@H]1C(=O)N[C@@H](CO)C(=O)N[C@@H](CO)C(=O)NCC(=O)N[C@@H](C)C(=O)N1CCC[C@H]1C(=O)N1CCC[C@H]1C(=O)N1CCC[C@H]1C(=O)N[C@@H](CO)C(N)=O)[C@@H](C)O)C(C)C)[C@@H](C)CC [Example 70] (H-Y[Aib]EGTFISDYSI[αMeL]LDKK([AEEA-AEEA-γGlu-C20 diacid])HQ[Aib]DFVE[4Pal]LLATGPSSGAPPPS-NH2) | 10.38 | 6.07 | 6.24 |
| CC[C@H](C)[C@H](NC(=O)[C@H](Cc1ccccc1)NC(=O)[C@@H](NC(=O)CNC(=O)[C@H](CCC(=O)O)NC(=O)C(C)(C)NC(=O)[C@@H](N)Cc1ccc(O)cc1)[C@@H](C)O)C(=O)N[C@@H](CO)C(=O)N[C@@H](CC(=O)O)C(=O)N[C@@H](Cc1ccc(O)cc1)C(=O)N[C@@H](CO)C(=O)N[C@H](C(=O)N[C@@](C)(CC(C)C)C(=O)N[C@@H](CC(C)C)C(=O)N[C@@H](CC(=O)O)C(=O)N[C@@H](CCCCN)C(=O)N[C@@H](CCCCNC(=O)COCCOCCNC(=O)COCCOCCNC(=O)CC[C@H](NC(=O)CCCCCCCCCCCCCCCCCCC(=O)O)C(=O)O)C(=O)N[C@@H](Cc1c[nH]cn1)C(=O)N[C@@H](CCC(N)=O)C(=O)NC(C)(C)C(=O)N[C@@H](CC(=O)O)C(=O)N[C@@H](Cc1ccccc1)C(=O)N[C@H](C(=O)N[C@@H](CCC(=O)O)C(=O)N[C@@H](Cc1ccncc1)C(=O)N[C@@H](CC(C)C)C(=O)N[C@@H](CC(C)C)C(=O)N[C@@H](C)C(=O)NCC(=O)NCC(=O)N1CCC[C@H]1C(=O)N[C@@H](CO)C(=O)N[C@@H](CO)C(=O)NCC(=O)N[C@@H](C)C(=O)N1CCC[C@H]1C(=O)N1CCC[C@H]1C(=O)N1CCC[C@H]1C(=O)N[C@@H](CO)C(N)=O)C(C)C)[C@@H](C)CC [Example 48] | 10.30 | 6.57 | 6.68 |
| CC[C@H](C)[C@H](NC(=O)[C@H](Cc1ccccc1)NC(=O)[C@@H](NC(=O)CNC(=O)[C@H](CCC(=O)O)NC(=O)C(C)(C)NC(=O)[C@@H](N)Cc1ccc(O)cc1)[C@@H](C)O)C(=O)N[C@@H](CO)C(=O)N[C@@H](CC(=O)O)C(=O)N[C@@H](Cc1ccc(O)cc1)C(=O)N[C@@H](CO)C(=O)N[C@H](C(=O)N[C@@](C)(CC(C)C)C(=O)N[C@@H](CC(C)C)C(=O)N[C@@H](CC(=O)O)C(=O)N[C@@H](CCCCN)C(=O)N[C@@H](CCCCNC(=O)COCCOCCNC(=O)COCCOCCNC(=O)CC[C@H](NC(=O)CCCCCCCCCCCCCCCCCCC(=O)O)C(=O)O)C(=O)N[C@@H](Cc1c[nH]cn1)C(=O)N[C@@H](CCC(N)=O)C(=O)NC(C)(C)C(=O)N[C@@H](CC(=O)O)C(=O)N[C@@H](Cc1ccccc1)C(=O)N[C@H](C(=O)N[C@@H](CCC(=O)O)C(=O)N[C@@H](Cc1ccc(O)cc1)C(=O)N[C@@H](CC(C)C)C(=O)N[C@@H](CC(C)C)C(=O)N[C@@H](CCC(=O)O)C(=O)NCC(=O)NCC(=O)N1CCC[C@H]1C(=O)N[C@@H](CO)C(=O)N[C@@H](CO)C(=O)NCC(=O)N[C@@H](C)C(=O)N1CCC[C@H]1C(=O)N1CCC[C@H]1C(=O)N1CCC[C@H]1C(=O)N[C@@H](CO)C(N)=O)C(C)C)[C@@H](C)CC [Example 69] (H-Y[Aib]EGTFISDYSI[αMeL]LDKK([AEEA-AEEA-γGlu-C20 diacid])HQ[Aib]DFVEYLLEGGPSSGAPPPS-NH2) | 10.39 | 6.94 | 6.84 |
